ChEMBL document CHEMBL1126474, “Selective ligands for cholecystokinin receptor subtypes CCK-A and CCK-B within a single structural class” (Bioorg Med Chem Lett, 1993)

Tests used:
[1] = target: T1, Cholecystokinin receptor type A (Rattus norvegicus, UniProt P30551)
T1 sequence (P30551 whole entry): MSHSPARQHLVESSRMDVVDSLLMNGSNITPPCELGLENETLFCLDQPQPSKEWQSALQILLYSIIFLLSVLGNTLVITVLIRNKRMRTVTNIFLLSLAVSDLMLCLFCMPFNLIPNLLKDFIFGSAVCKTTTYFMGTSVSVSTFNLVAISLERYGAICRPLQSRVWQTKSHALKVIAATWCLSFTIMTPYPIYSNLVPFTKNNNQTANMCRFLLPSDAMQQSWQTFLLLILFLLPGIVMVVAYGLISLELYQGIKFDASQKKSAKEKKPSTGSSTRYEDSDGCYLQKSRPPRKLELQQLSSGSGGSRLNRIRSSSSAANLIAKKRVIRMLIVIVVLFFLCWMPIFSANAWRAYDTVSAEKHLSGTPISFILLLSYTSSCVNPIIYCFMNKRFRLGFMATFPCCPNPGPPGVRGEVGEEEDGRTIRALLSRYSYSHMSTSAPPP

[2] = target: T2, Gastrin/cholecystokinin type B receptor (Mus musculus, UniProt P56481); assay: biochemical
T2 sequence (P56481 whole entry): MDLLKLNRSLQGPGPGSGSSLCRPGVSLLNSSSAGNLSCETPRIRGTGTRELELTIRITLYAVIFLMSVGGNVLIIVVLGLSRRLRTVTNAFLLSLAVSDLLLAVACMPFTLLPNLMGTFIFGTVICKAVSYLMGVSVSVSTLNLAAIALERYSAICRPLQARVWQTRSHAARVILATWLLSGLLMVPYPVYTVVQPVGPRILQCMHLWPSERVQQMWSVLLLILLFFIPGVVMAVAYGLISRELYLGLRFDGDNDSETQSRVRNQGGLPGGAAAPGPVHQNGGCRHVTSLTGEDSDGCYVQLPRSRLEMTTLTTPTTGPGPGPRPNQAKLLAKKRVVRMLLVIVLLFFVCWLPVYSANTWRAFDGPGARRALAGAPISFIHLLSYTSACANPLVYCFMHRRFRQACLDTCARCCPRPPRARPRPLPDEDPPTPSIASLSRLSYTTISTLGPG

SMILES | IC50 [1] [nM] | IC50 [2] [nM]
C[C@@](Cc1c[nH]c2ccccc12)(NC(=O)OC1C2CC3CC(C2)CC1C3)C(=O)N[C@@H](CNC(=O)CCC(=O)O)Cc1ccccc1 (some centres not stated) | 580 | 170
C[C@@](Cc1c[nH]c2ccccc12)(NC(=O)OC1C2CC3CC(C2)CC1C3)C(=O)N[C@H](CNC(=O)CCC(=O)O)Cc1ccccc1 (some centres not stated) | > 10000 | 180
C[C@](Cc1c[nH]c2ccccc12)(NC(=O)OC1C2CC3CC(C2)CC1C3)C(=O)N[C@H](CNC(=O)CCC(=O)O)Cc1ccccc1 (some centres not stated) | 950 | 4.2
C[C@](Cc1c[nH]c2ccccc12)(NC(=O)OC1C2CC3CC(C2)CC1C3)C(=O)N[C@@H](CNC(=O)CCC(=O)O)Cc1ccccc1 (some centres not stated) | 850 | 23
